Results published in US20240309028A1, “PHOSPHOLIPID COMPOUNDS AND METHODS OF MAKING AND USING THE SAME” (Gilead Sciences, Inc., priority 2023, published 2024).

Legend:
Format in all cases: cell-based
[1] = system: Respiratory syncytial virus recombinant with luciferase (RSV-Luc5); assay: NHBE RSV-Luc5 384-well assay (EC50 RSVFLUC NHBE-384); details: human respiratory syncytial virus, 72 h, read-out: EC50 RSV FLUC NHBE 384 V2 (per Ex. U)
Description: Example U. NHBE RSV-Luc5 384-Well Assay (EC50 RSVFLUC NHBE-384)
Normal Human Bronchial Epithelial (NHBE) cells were purchased from Lonza (Walkersville, MD Cat #CC2540) and maintained in BEGM Bronchial Epithelial Cell Growth Medium BulletKit (Lonza CC-3170).
Cells were thawed, expanded, and were used for experiments at passage 2. Respiratory syncytial virus recombinant with luciferase (RSV-Luc5) (≥1×107 Infectious Units/ml (IU/ml) determined by TCID50) was purchased from Microbiologics (Saint Cloud, MN). Viral replication was determined in NHBE cells in the following manner.
Compounds are prepared in 100% DMSO in 384-well polypropylene plates (Greiner, Monroe, NC, Cat #784201) with 8 compounds per plate in grouped replicates of 4 at 10 serially diluted concentrations (1:3). The serially diluted compounds were transferred to low dead volume Echo plates (Labcyte, Sunnyvale, CA, Cat #LP-0200).
The test compounds were spotted to 384-well assay plates (Greiner, Monroe, NC, Cat #781091) at 200 nL per well. NHBE cells were harvested and suspended in BEGM Bronchial Epithelial Cell Growth Medium BulletKit and seeded to the pre-spotted assay plates at 5,000 cells per well in 30 μL. RSV-Luc5 virus was diluted in BEGM Bronchial Epithelial Cell Growth Medium BulletKit at 500,000 Infectious Units (IU) per mL and 10 μL per well was added to the assay plates containing cells and compounds, for an MOI of 1. The assay plates were incubated for 3 days at 37° C. and 5% CO2. At the end of incubation, One-Glo reagent (Promega, Madison, WI, Cat #E6120) was prepared. The assay plates and One-Glo reagent were equilibrated to room temperature for at least 15 minutes. 40 μL per well of One-Glo reagent was added and the plates were incubated at room temperature for 15 minutes before reading the luminescence signal on an En Vision multimode plate reader (Perkin Elmer, Waltham, MA). Remdesivir was used as positive control and DMSO was used as negative control. Values were normalized to the positive and negative controls (as 0% and 100% replication, respectively) and data was fitted using non-linear regression analysis by Gilead's dose response tool. The EC50 value for each compound was defined as the concentration reducing the viral replication by 50%.

[2] = system: Human Rhinovirus 14 (HRV14); assay: H1-HeLa HRV-CTG EC50, HRV14; details: Rhinovirus B, 96 h; H1-HeLa cells, HRV14, MOI 1.0, 4 days, Celltiter-Glo; read-out: EC50 H1-HeLa_HRV14_HRV-CTG 384-well Assay (per Ex Z)
Description: (§1) Example Z: H1-HeLa HRV-CTG EC50
(§2) H1-Hela cell line (ATCC, Manassas, VA, Cat #CRL-1958) was maintained in Dulbecco's […] Essential Medium (DMEM) (Corning, New York, NY, Cat #15-018 CM) supplemented with 10% fetal bovine serum (FBS) (Hyclone, Logan, UT, Cat #SH30071-03), and 1× Penicillin-Streptomycin-L-Glutamine (Corning, New York, NY, Cat #30-009-CI). Cells were passaged 2 times per week to maintain sub-confluent densities and were used for experiments at passage 5-30. The Human Rhinovirus 1B (HRVIB) (ATCC, Manassas, VA, Cat #VR-1645), Human Rhinovirus 14 (HRV14) (ATCC, Manassas, VA, Cat #VR-284), and Human Rhinovirus 16 (HRV16) (ATCC, Manassas, VA, Cat #BR-283) was obtained through ATCC. Viral infection was monitored by determining viability of H1-HeLa cells as described below.
(§3) Test molecules are prepared in 100% DMSO in 384-well polypropylene plates (Greiner, Monroe, NC, Cat #784201) with 8 compounds per plate in grouped replicates of 4 at 10 serially diluted concentrations (1:3). […]
(§4) The test compounds were spotted to 384-well assay plates (Greiner, Monroe, NC, Cat #781091) at 200 nL per well using an Echo acoustic dispenser (Labcyte, Sunnyvale, CA). […] 40 μL per well of Celltiter-Glo reagent was added and the plates were incubated at room temperature for 15 minutes before reading the luminescence signal on an En Vision multimode plate reader (Perkin Elmer, Waltham, MA). […]

[3] = system: Human Rhinovirus 16 (HRV16); assay: H1-HeLa HRV-CTG EC50, HRV16; details: Rhinovirus A, 96 h; H1-HeLa cells, HRV16, MOI 0.25, 4 days, Celltiter-Glo; read-out: EC50 H1-HeLa_HRV16_HRV-CTG 384-well Assay (per Ex. Z)
Description: as §1, §2, §3, §4

Row | SMILES | EC50 [1] [µM] | EC50 [2] [µM] | EC50 [3] [µM]
1 | N#Cc1cc(F)cc(CO[C@H](CCCCCCCCCCCCCCCCCCC(F)(F)F)COP(=O)(O)OC[C@@]2(C#N)O[C@@H](c3ccc4c(N)ncnn34)[C@H](O)[C@@H]2O)c1 [Compound 2, ((2R,3S,4R,5S)-5-(4-aminopyrrolo[2,1-f][1,2,4]triazin-7-yl)-2-cyano-3,4-dihydroxytetrahydrofuran-2-yl)methyl ((R)-2-((3-cyano-5-fluorobenzyl)oxy)-21,21,21-trifluorohenicosyl) hydrogen phosphate] | 0.03 | 0.087 | 0.091
2 | N#Cc1cc(F)cc(CO[C@H](COCCCCCCCCCCCCCCCCCC(F)(F)F)COP(=O)(O)OC[C@@]2(C#N)O[C@@H](c3ccc4c(N)ncnn34)[C@H](O)[C@@H]2O)c1 [Compound 1, ((2R,3S,4R,5S)-5-(4-aminopyrrolo[2,1-f][1,2,4]triazin-7-yl)-2-cyano-3,4-dihydroxytetrahydrofuran-2-yl)methyl ((R)-2-((3-cyano-5-fluorobenzyl)oxy)-3-((18,18,18-trifluorooctadecyl)oxy)propyl) hydrogen phosphate] | 0.026 | 0.034 | 0.034
